According to US20110045004A1, “METHOD FOR IN-VITRO DETECTING PATHOGENIC T HELPER CELLS AND PHARMACEUTICAL COMPOSITIONS FOR TREATING AUTOIMMUNE DISEASES” (DEUTCHES RHEUMA-FORSCHUNGSZENTRUM BERLIN, priority 2007, published 2011):

Tests used:
[1] = test system: twist1 mRNA in 4-w-old Th1 cells; test: twist1 mRNA (RT PCR) in restimulated 4-w-old Th1 cells with inhibitors or single stimuli; format: cell-based, murine; settings: for PMA/ionomycin mediated up-regulation of twist1 mRNA expression: 4-w-old Th1 cells restimulated 3 h with PMA/ionomycin and IL-2, serial dilutions of inhibitor (FIG. 2B); for induction of twist1 expression by stimulus alone: 4-w-old Th1 cells restimulated 3 h in the presence of IL-2 (FIG. 2C)
Procedure: (§1) Lymphocytes were cultured in complete RPMI1640 (Invitrogen) supplemented with 10% heat-inactivated fetal calf serum, 100 units/ml penicillin, 0.1 mg/ml streptomycin and 10 μM β-mercaptoethanol. Naïve CD4+CD62L+ lymphocytes from 6-8 w old DO11.10 mice were isolated as described. Irradiated (30 Gy) BALB/c splenocytes were used as APCs at a ratio of 5:1. The cognate peptide ova323-339 (R. Volkmer-Engert, Humboldt University of Berlin, Germany) was added at 0.5 μM. Alternatively, plates were coated with 3 μg/ml anti-CD3 (145-2C11) in PBS, and CD4+ cells were plated at a density of 2×10^6 cells/ml in medium plus 1 μg/ml soluble anti-CD28 (37.51). For Th1 differentiation, cells were stimulated in the presence of 5 ng/ml recombinant murine IL-12 (R&D Systems) and 5 μg/ml anti-IL-4 antibody (11B11). For Th2 differentiation, cells were stimulated in the presence of murine IL-4 (100 ng/ml, culture supernatant of HEK293T cells transfected with an expression plasmid, encoding murine IL-4), 5 μg/ml anti-IL-12 antibody (C17.8.6) and anti-IFN-γ antibody (AN18.17.24). Dead cells were removed by Ficoll-Histopaque separation. Every 6 d viable Th cells were harvested and restimulated under the original conditions, except that 10 ng/ml murine IL-2 (R&D Systems) was added.
Cells were re-stimulated with 10 ng/ml PMA, and 1 μg/ml ionomycin. Alternatively, cells were re-stimulated with plate-bound anti-CD3 (10 μg/ml), and soluble anti-CD28 ([…]). For re-stimulation of murine T cells, 10 ng/ml IL-2 was added. For intracellular staining of cytokines, T cells were stimulated for 2 h with PMA/ionomycin and additional 3 h with 5 μg/ml of brefeldin A to block the secretion of cytokines. Cells were fixed with 2% formaldehyde in PBS for 15 min at room temperature and permeabilized with 0.5% w/v saponin.
(§2) Total RNA was prepared using NucleoSpin RNA II (Macherey-Nagel) or RNeasy kit (Qiagen). […] For the normalization of murine and human cDNA the transcripts for the housekeeping genes hypoxanthine guanine phosphoribosyl transferase (HPRT) and ubiquitin ligase H5 (UbCH5) were quantified, respectively. Data were evaluated using Lightcycler software. Relative expression was calculated as follows: Et^ΔCp target gene (reference-sample)/EhΔCp housekeeping gene (reference-sample), where Cp represents the crossing point and E represents the reaction efficiency, determined by serial dilution of DNA.
(A) Comparison of the genomic sequence of the murine and the human proximal twist1 promoter (−150 to −100). […] The binding of NFAT1 (D) and the NF-κB subunit p65 (E) to the proximal promoter of twist1 was analyzed by chromatin immunoprecipitation (ChIP). […] The immunoprecipitated DNA was quantified by RT PCR using primers specific for the proximal promoter. […]

[2] = test system: Rag-deficient mice, intestine; test: Transfer colitis model with Hop shRNA transduced Th1 cells; format: in vivo, murine; settings: Th1 cells transduced with shRNA transferred into Rag-deficient mice (FIG. 12)
From the text: To assess the functional role of hop we used a T cell dependent model of inflammatory bowel disease. In this model, T cells are transferred into Rag-deficient or SCID mice lacking T and B cells. In this model, the transferred T cells react against the intestinal bacterial flora leading to inflammation in the intestine. For the analysis of the function of Hop we inhibited the expression of Hop by shRNA-mediated knock-down. Polyclonally activated Th1 cells transduced with a retroviral vector encoding a Hop-specific shRNA or a control shRNA were transferred into Rag-deficient mice. […] The transfer of control Th1 cells lead to severe inflammation of the intestine with strong infiltration of inflammatory cells and a complete loss of the intestinal architecture.

[3] = test system: twist1 mRNA in DO11.10 Th cells; test: twist1 mRNA induction by Th1-polarizing signals in DO11.10 Th cells; format: cell-based, murine; settings: for induction of twist1 expression by polarizing signal: CD62Lhi DO11.10 Th cells stimulated 5 d, then 3 h PMA/ionomycin and IL-2, IFN-γ tested in the absence of IL-12 (FIG. 3A)
Procedure: as §1, §2
Twist1 mRNA of Th cells activated for 3 h with PMA/ionomycin and IL-2 was quantified by RT PCR (A-D). […] Twist1 transcripts were quantified on d 11. […]

With O=C(Nc1ccc(-n2nc(C(F)(F)F)cc2C(F)(F)F)cc1)c1ccc(Cl)cc1 [BTP1] the “PMA/ionomycin mediated up-regulation of twist1 mRNA expression” value [1] was “blocked the PMA/ionomycin mediated up-regulation of twist1 mRNA expression in a dose-dependent fashion”.

With S=C(S)N1CCCC1 [PDTC, pyrrolidine dithiocarbamate] the “PMA/ionomycin mediated up-regulation of twist1 mRNA expression” value [1] was “blocked the PMA/ionomycin mediated up-regulation of twist1 mRNA expression in a dose-dependent fashion”.

For CCCCCCCCCCCCCC(=O)O[C@@H]1[C@@H](C)[C@@]2(O)[C@@H](C=C(CO)C[C@]3(O)C(=O)C(C)=C[C@@H]23)[C@@H]2C(C)(C)[C@]12OC(C)=O [PMA], the “induction of twist1 expression by stimulus alone” value [1] was “did not induce twist1 expression”.

“Hop-specific shRNA: retroviral vector encoded shRNA against Hop, target sequence SEQ ID NO. 40, whole shRNA SEQ ID NO. 41 (TGCAGATCTGTTACGGACTATTCAAGAGATAGTCCGTAACAGATCTGCTTTTTTC)” was tested, and the “clinical signs of inflammation, histological analysis of the intestine” value [2] was “strongly reduced clinical signs of inflammation”.

With “IFN-γ: cytokine added in the absence of IL-12, 10 ng/ml” the “induction of twist1 expression by polarizing signal” value [3] was “did not induce twist1 expression”.

TNF-α was tested, and the “induction of twist1 expression by stimulus alone” value [1] was “did not induce twist1 expression”.

B1: IL-12: recombinant murine IL-12, Th1-polarizing signal (protein, UniProt P43431 23-215; P43432 23-335, looked up)
Interleukin-12 subunit alpha: RVIPVSGPARCLSQSRNLLKTTDDMVKTAREKLKHYSCTAEDIDHEDITRDQTSTLKTCLPLELHKNESCLATRETSSTTRGSCLPPQKTSLMMTLCLGSIYEDLKMYQTEFQAINAALQNHNHQQIILDKGMLVAIDELMQSLNHNGETLRQKPPVGEADPYRVKMKLCILLHAFSTRVVTINRVMGYLSSA
Interleukin-12 subunit beta: MWELEKDVYVVEVDWTPDAPGETVNLTCDTPEEDDITWTSDQRHGVIGSGKTLTITVKEFLDAGQYTCHKGGETLSHSHLLLHKKENGIWSTEILKNFKNKTFLKCEAPNYSGRFTCSWLVQRNMDLKFNIKSSSSSPDSRAVTCGMASLSAEKVTLDQRDYEKYSVSCQEDVTCPTAEETLPIELALEARQQNKYENYSTSFFIRDIIKPDPPKNLQMKPLKNSQVEVSWEYPDSWSTPHSYFSLKFFVRIQRKKEKMKETEEGCNQKGAFLVEKTSTEVQCKGGNVCVQAQDRYYNSSCSKWACVPCRVRS
B1 was tested, and the “induction of twist1 expression by polarizing signal” value [3] was “induced twist1 expression in a dose-dependent fashion” and the “increase of TCR activation-dependent twist1 expression over one week stimulated Th1 cells” value ([3]; Th1 cells polarized one week with IL-12, reactivated another week in the presence of IL-12 (FIG. 3D)) was 16 fold.
